This is an account of results in US20240293351A1, “METHODS OF ADMINISTERING SYNTHETIC TRITERPENOIDS” (REATA PHARMACEUTICALS HOLDINGS, LLC, priority 2020, published 2024).

“Also recorded” adds a separate entry of the source. Read-outs that look alike come from different tables or passages of the source.

The Km is the concentration of substrate that gives half-maximal velocity. Broadly, the half-life is the time needed for the level to fall by half in the phase considered. Low readings indicate fast loss, high ones slow loss. The term Tmax denotes the time at which the peak concentration occurs.

The conditions of series [1]: cited from earlier work; for Occurrence of Death / Occurrence of ESRD: ITT.
The next series deals with HIV. The note with it: macrophages; cited from earlier work.
The nature of series [2]: Storage stability of RTA 408 amorphous form under elevated temperature and humidity (PXRD). The format is physicochemical. The note with it: open at 25° C./62% r.h. and 40° C./75% r.h., closed at 60° C. and 80° C., up to four weeks. How it is done:
In addition, the stability of the amorphous form was investigated by storage under elevated temperature and humidity conditions (open at 25° C./62% r.h. and 40° C./75% r.h. and closed at 60° C. and 80° C.). After one week, two weeks, and four weeks, the stored samples were analyzed by PXRD.

Series [3] can be described thus: Hygroscopicity of RTA 408 solid forms (DVS, TGA-MS). The format is physicochemical.
Series [4] can be described thus: Chemical stability of RTA 408 amorphous form in organic solvents and aqueous media. To be noted: 1 mg/mL; acetone, EtOAc, MeOH, MeCN, 1% aq. Tween 80, SDS, CTAB; 6 h, 24 h, 2 d, 7 d. Format: physicochemical. How it is done:
The chemical stability of the amorphous form was investigated in organic solvents, including acetone, EtOAc, MeOH, and MeCN, as well as different aqueous media (e.g., 1% aq. Tween 80, 1% aq. SDS, 1% aq. CTAB) at a concentration of 1 mg/mL at time points 6 h, 24 h, 2 d, and 7 d.

Series [5] concerns CYP3A4/5. Put plainly: in vitro. The note with it: human, human liver microsomes. Background: Liver microsomes are a subcellular fraction often used to study metabolism.
The next series concerns cerebral granule neurons. To be noted: cited from earlier work.
The nature of series [6]: Phase 1 drug-drug interaction study: omaveloxolone alone and with itraconazole in healthy subjects.
In series [7] the test system is CYP3A4/5. To be noted: human liver microsomes and recombinantly-expressed CYPs.
The nature of series [8]: Drug-drug interaction study: bardoxolone methyl alone and with itraconazole in healthy volunteers. The note with it: itraconazole alone, 200 mg daily (Period 2).
For series [9] the following is noted: cited from earlier work.
The conditions of series [10]: monkey, in vivo; cited from earlier work.
[11] abbreviates: ASCEND, avosentan 25 mg (N = 455).
Where [12] appears, read: ASCEND, avosentan 50 mg (N = 478).
[13] abbreviates: 150 mg omaveloxolone alone (Reference), plasma.
The mark [14] stands for this setting: 200 mg itraconazole QD + 150 mg omaveloxolone (Test), plasma.
Setting [15] is: Test vs Reference statistical analysis.
[16] abbreviates: Test: 200 mg itraconazole QD + 150 mg omaveloxolone, n = 13.
Where [17] appears, read: omaveloxolone + itraconazole vs omaveloxolone alone.

Consider `COc1ccccc1Oc1c(NS(=O)(=O)c2ccc(C)cn2)nc(-c2ccncc2)nc1OC` [avosentan], for which, in [1] (setting [11]), the “Occurrence of Death” value was 3.6% and the “Occurrence of ESRD” value was 4.4%. Also, in [1] (setting [12]), the “Occurrence of Death” value was 4.6% and the “Occurrence of ESRD” value was 5.0%. Also, in [1] (ASCEND), the Death entry is “modest, non-significant increase in death” and the ESRD events result is given as “small, numerical reduction in ESRD events”. Moreover, the “Risk of congestive heart failure (CHF)” value in [1] (human, in vivo) is “approximate three-fold increase”.

With `CC1(C)CC[C@]2(C(=O)O)CC[C@]3(C)[C@H](C(=O)C=C4[C@@]5(C)C=C(C#N)C(=O)C(C)(C)[C@@H]5CC[C@]43C)[C@@H]2C1` [CDDO, 2-cyano-3,12-dioxooleane-1,9(11)-dien-28-oic acid], the “Replication of HIV” value in the series with HIV is “can inhibit the replication of HIV in macrophages”.

In the case of `CC1(C)CC[C@]2(NC(=O)C(C)(F)F)CC[C@]3(C)[C@H](C(=O)C=C4[C@@]5(C)C=C(C#N)C(=O)C(C)(C)[C@@H]5CC[C@]43C)[C@@H]2C1` [RTA 408 amorphous form], the “Stability under elevated temperature and humidity conditions” value in series [2] is given as “stable for at least four weeks; also recorded: None of the samples differed from the amorphous starting material”. Further, the “Hygroscopicity, Δm” value in [3] (DVS, 50%→85% r.h.) is “+0.4%”. Further, the “Chemical stability, decomposition” value in series [4] was “Decomposition ≥1% was observed only for solutions in MeCN after 7 days and for suspensions in the 1% aqueous Tween 80 medium”.

Consider `CC1(C)CC[C@]2(NC(=O)C(C)(F)F)CC[C@]3(C)[C@H](C(=O)C=C4[C@@]5(C)C=C(C#N)C(=O)C(C)(C)[C@@H]5CC[C@]43C)[C@@H]2C1` [Omaveloxolone], for which the Michaelis-Menten constant (Km) with CYP3A4/5 [5] worked out at 1.12 µM. In the series with cerebral granule neurons, the “Protection from hydrogen peroxide-induced oxidative stress” value is reported as “significant protection”. Besides, in series [6] (setting [13]), the “AUC0-t, geometric mean” value came to 1730 ng·h/mL; the “AUC0-∞, geometric mean” value is 1730 ng·h/mL; the “CL/F, geometric mean” value came to 86.7 L/h; the “Cmax, geometric mean” value was determined as 43.0 ng/mL. The “t1/2, geometric mean” value in series [6] (setting [13]) was 89.8 h. Further, in [6] (150 mg, itraconazole 200 mg QD), the “Increase in systemic exposure, AUC0-∞, with itraconazole” value is listed as “approximately 4 fold”; the “Increase in systemic exposure, Cmax, with itraconazole” value was about 3 fold; the “Ratio (90% CI) of geometric LS means, AUC0-∞ (with itraconazole vs alone)” value is 4.12 (3.48, 4.87); the “Ratio (90% CI) of geometric LS means, Cmax (with itraconazole vs alone)” value is 2.77 (2.17, 3.54). Further, in [6] (setting [14]), the “AUC0-t, geometric mean” value turned out to be 6340 ng·h/mL; the “AUC0-∞, geometric mean” value is 7280 ng·h/mL; the “CL/F, geometric mean” value was 20.6 L/h; the “Cmax, geometric mean” value was determined as 116 ng/mL. The “t1/2, geometric mean” value in series [6] (setting [14]) was found to be 78.1 h. Further, the “AUC0-∞, GLSM” value in [6] (Reference: 150 mg omaveloxolone alone, n = 14) amounted to 1730 ng·h/mL. In addition, the “Cmax, GLSM” value in [6] (Reference: 150 mg omaveloxolone alone, n = 15) came out at 43.0 ng/mL. Also, in [6] (setting [15]), the “AUC0-∞, Within-subject CV %” value is reported as 24.4% and the “Cmax, Within-subject CV %” value was found to be 36.8%. Further, in series [6] (setting [16]), the “AUC0-∞, GLSM” value turned out to be 7130 ng·h/mL and the “Cmax, GLSM” value was 119 ng/mL. This molecule showed a half-life in [6] (both, human, plasma, oral, 150 mg) of 89.8 h. Also, in series [6] (both, human, plasma, oral, 150 mg, Median Tmax (min-max), 150 mg single dose, alone), the Tmax stood at 12 h. Further, the Tmax in series [6] (both, human, plasma, oral, 150 mg, tmax, median, Reference: 150 mg omaveloxolone alone, n = 15, Wilcoxon signed rank analysis) amounted to 8 h. In series [6] (both, human, plasma, oral, Median Tmax (min-max), 150 mg co-administered with 200 mg itraconazole QD), the Tmax was 6 h. The Tmax in series [6] (both, human, plasma, oral, tmax, median, Test: 200 mg itraconazole QD + 150 mg omaveloxolone, n = 13, Wilcoxon signed rank analysis) amounted to 6 h. Besides, in series [6] (human, in vivo), the “Within-subject variability of AUC0-∞, geometric CV %” value is 24.4% and the “Within-subject variability of Cmax, geometric CV %” value is on record as 36.8%. For the same molecule, in [6] (setting [17]), the “AUC0-∞, Ratio of GLSMs (Test:Reference)” value stood at 4.12 and the “Cmax, Ratio of GLSMs (Test:Reference)” value is 2.77. Further, the “Subjects reporting TEAEs” value in series [6] (omaveloxolone alone, 15 subjects) came to 2 subjects. Besides, the “Subjects reporting TEAEs” value in series [6] (omaveloxolone in combination with itraconazole) is on record as “no subjects reported TEAEs”. Also, in series [6] (whole study), the “Clinical laboratory evaluations, vital signs, ECG parameters” value is given as “no clinically significant findings” and the “Deaths or SAEs” value is listed as “no deaths or SAEs”. Also, the Metabolizing enzyme result with CYP3A4/5 [7] is “metabolized by CYP3A4”.

Take `CC1(C)CC[C@]2(NC(=O)C(C)(F)F)CC[C@]3(C)[C@H](C(=O)C=C4[C@@]5(C)C=C(C#N)C(=O)C(C)(C)[C@@H]5CC[C@]43C)[C@@H]2C1`: in series [3] (from 50% r.h. to 85% r.h.), the “Hygroscopicity, mass gain” value is recorded as about 0.7 wt.-%.

For `CCC(C)n1ncn(-c2ccc(N3CCN(c4ccc(OCC5COC(Cn6cncn6)(c6ccc(Cl)cc6Cl)O5)cc4)CC3)cc2)c1=O` (stereo not shown) [itraconazole], the “Subjects with a TEAE, n (%)” value in series [8] is given as 1 (6.7%). The “Peak plasma level at steady state” value in series [9] (100 mg once daily) is 0.5 µg/mL; in series [9] (200 mg once daily), 1.1 µg/mL; in [9] (200 mg twice daily), 2.0 µg/mL. Further, in series [9] (in vivo), the “Renal excretion of itraconazole and hydroxy-itraconazole” value is “less than 1 % of an intravenous dose”. Further, the “Time to peak steady state” value in [9] (repeated administration) is recorded as “about 15 days”.

Consider `COC(=O)[C@]12CCC(C)(C)C[C@H]1[C@H]1C(=O)C=C3[C@@]4(C)C=C(C#N)C(=O)C(C)(C)[C@@H]4CC[C@@]3(C)[C@]1(C)CC2` [Form B CDDO-Me], for which the Oral bioavailability result in series [10] is “higher than that of Form A”.
